Three compounds from PMC10069031 (European Journal of Medical Research, 2023) can be followed below.

For one series, the system named is ERK1/2. The experiment in a line: Inhibition of ERK activation in CSF1-stimulated RAW264.7 cells (western blot). Format: cell-based, mouse. Conditions: mean ± SD (replicates), read-out: Mean kinase IC50 values: P(T185,202;Y187,204) ERK1/2 [WB]. The protocol: (§1) RAW264.7 cells (10^6) were seeded into cell culture dishes 6 cm in diameter and incubated in 4 mL RPMI/10% fetal bovine serum (Biochrom) for 24 h at 37 °C in a humidified 5% CO2 atmosphere. Cells were washed once with phosphate-buffered saline (PBS) and starved in 3 mL RPMI/0.1% bovine serum albumin for another 24 h. Cells were then treated for 1 h at 37 °C with drugs at the indicated final concentrations, with 0.5% DMSO as vehicle control, or left untreated, and finally stimulated for 2 min at 37 °C with 100 ng/mL recombinant mouse CSF1 (R&D Systems) by adding 1 mL prewarmed starving medium containing 400 ng/mL CSF1. Dishes were placed on ice and cells were immediately washed with ice-cold PBS and lysed with 50 µL lysis buffer (50 mM HEPES pH 7.5, 150 mM NaCl, 1.5 mM MgCl2, 10% glycerol, 1% Triton X-100, 0.5% desoxycholate, 0.2% sodium dodecyl sulfate, 1 mM ethylene glycol-bis[β-aminoethyl ether]-N,N,N′,N′-tetraacetic acid, 100 mM NaF, 10 mM Na4P2O7, 1 mM Na3VO4, 1% Phosphatase Inhibitor Cocktail 3 [Sigma-Aldrich], 1 mM phenylmethyl sulfonyl fluoride, Complete Protease Inhibitor Cocktail [Roche CustomBiotech; 1 tablet/10 mL], and 50 U/mL Benzonase [Sigma-Aldrich]). Lysed cells were scraped into Eppendorf tubes, incubated on ice for 20 min, and centrifuged at 4 °C for 10 min at 13,000 rpm; supernatants (lysates) were transferred into new tubes and stored at −80 °C.
(§2) Protein concentrations were determined using Pierce bicinchoninic acid assay (Thermo Fisher Scientific) and 40 µg/lane of total lysate was separated by SDS-PAGE on 4–12% Criterion XT Bis–Tris Gels (Bio-Rad) and subsequently transferred to polyvinylidene difluoride membranes using the Trans Blot Turbo Blotting System (Bio-Rad). For antigen detection, membranes were blocked with PBS Odyssey blocking reagent (LI-COR Biosciences) for 1 h at room temperature (RT). Primary antibodies were incubated overnight at 4 °C and the fluorescent secondary antibodies were incubated for 1 h at RT. After each antibody incubation, blots were washed with PBS with 0.05% Tween 20 (Carl Roth) for 15–30 min at RT. Fluorescent signals were quantitatively captured using the Odyssey DLx Infrared Imaging System (LI-COR Biosciences) and the half-maximal inhibitory concentration (IC50) values were calculated using GraphPad software (version 7 or newer).
Background: Immunoblotting shows a protein as a band on a membrane.

The next series addresses T1, murine CSF1R (Mus musculus, UniProt P09581).
T1 construct: Western blot analysis of total lysates (40 µg/lane) from mouse RAW264.7 cells treated as indicated; endogenous in cells; host or cells: RAW264.7 (murine macrophages)
T1 sequence (P09581 20-977): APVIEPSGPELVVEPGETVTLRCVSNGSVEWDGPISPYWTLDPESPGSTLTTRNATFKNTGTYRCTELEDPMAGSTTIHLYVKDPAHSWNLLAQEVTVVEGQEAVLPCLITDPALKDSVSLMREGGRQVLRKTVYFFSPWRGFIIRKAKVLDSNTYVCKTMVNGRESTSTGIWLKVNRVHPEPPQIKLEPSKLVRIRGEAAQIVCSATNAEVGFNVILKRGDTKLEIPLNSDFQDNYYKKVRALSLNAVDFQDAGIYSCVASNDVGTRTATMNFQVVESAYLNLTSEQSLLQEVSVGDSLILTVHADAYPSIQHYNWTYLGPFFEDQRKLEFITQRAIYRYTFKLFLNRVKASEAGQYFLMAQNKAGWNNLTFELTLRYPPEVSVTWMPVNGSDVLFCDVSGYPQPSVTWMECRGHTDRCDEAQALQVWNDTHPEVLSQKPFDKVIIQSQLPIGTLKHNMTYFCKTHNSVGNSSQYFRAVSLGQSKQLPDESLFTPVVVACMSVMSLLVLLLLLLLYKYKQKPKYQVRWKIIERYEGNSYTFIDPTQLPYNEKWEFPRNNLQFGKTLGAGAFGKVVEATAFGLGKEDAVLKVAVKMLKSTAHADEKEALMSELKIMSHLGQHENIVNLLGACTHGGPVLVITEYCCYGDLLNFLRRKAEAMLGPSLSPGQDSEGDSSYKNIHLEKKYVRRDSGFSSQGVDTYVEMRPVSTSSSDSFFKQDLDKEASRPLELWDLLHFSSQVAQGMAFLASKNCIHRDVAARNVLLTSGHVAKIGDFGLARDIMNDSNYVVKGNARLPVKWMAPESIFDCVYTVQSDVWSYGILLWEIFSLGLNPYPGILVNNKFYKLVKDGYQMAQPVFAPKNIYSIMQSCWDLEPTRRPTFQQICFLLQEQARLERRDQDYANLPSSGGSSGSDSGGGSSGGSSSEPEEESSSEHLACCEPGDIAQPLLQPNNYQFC
The experiment in a line: CSF1R inhibition in RAW264.7 cells (western blot of pCSF1R). Format: cell-based. Conditions: RAW264.7 cells; for IC50: drug 1 h, CSF1 100 ng/mL 2 min, mean ± SD (replicates), M-4, M-5 from pCSF1R bands without relating to total CSF1R; for signal of total CSF1R: western blot. As for the experimental part:
as §1, §2

Another series relates to AKT. As to the kind of experiment: Inhibition of AKT activation in CSF1-stimulated RAW264.7 cells (western blot). Format: cell-based, mouse. To be noted: mean ± SD (replicates), read-out: Mean kinase IC50 values: P(S473)AKT [WB]. As for the experimental part:
as §1, §2

A short description of the next series: Binding to mouse plasma. Format: in vitro ADME.
A further series deals with VEGFR2 (Homo sapiens, UniProt P35968). As to the kind of experiment: Competition binding assay, reference kinase.
Where [1] appears, read: read-out: Mean kinase IC50 values: P(Y559)CSF1R [WB].
Setting [2] is: read-out: Mean kinase IC50 values: P(Y721)CSF1R [WB].

Each structure is given as a SMILES string. Like-named read-outs stand apart in the source and are kept apart here.

Chain of VEGFR2 (P35968 20-1356, species assumed): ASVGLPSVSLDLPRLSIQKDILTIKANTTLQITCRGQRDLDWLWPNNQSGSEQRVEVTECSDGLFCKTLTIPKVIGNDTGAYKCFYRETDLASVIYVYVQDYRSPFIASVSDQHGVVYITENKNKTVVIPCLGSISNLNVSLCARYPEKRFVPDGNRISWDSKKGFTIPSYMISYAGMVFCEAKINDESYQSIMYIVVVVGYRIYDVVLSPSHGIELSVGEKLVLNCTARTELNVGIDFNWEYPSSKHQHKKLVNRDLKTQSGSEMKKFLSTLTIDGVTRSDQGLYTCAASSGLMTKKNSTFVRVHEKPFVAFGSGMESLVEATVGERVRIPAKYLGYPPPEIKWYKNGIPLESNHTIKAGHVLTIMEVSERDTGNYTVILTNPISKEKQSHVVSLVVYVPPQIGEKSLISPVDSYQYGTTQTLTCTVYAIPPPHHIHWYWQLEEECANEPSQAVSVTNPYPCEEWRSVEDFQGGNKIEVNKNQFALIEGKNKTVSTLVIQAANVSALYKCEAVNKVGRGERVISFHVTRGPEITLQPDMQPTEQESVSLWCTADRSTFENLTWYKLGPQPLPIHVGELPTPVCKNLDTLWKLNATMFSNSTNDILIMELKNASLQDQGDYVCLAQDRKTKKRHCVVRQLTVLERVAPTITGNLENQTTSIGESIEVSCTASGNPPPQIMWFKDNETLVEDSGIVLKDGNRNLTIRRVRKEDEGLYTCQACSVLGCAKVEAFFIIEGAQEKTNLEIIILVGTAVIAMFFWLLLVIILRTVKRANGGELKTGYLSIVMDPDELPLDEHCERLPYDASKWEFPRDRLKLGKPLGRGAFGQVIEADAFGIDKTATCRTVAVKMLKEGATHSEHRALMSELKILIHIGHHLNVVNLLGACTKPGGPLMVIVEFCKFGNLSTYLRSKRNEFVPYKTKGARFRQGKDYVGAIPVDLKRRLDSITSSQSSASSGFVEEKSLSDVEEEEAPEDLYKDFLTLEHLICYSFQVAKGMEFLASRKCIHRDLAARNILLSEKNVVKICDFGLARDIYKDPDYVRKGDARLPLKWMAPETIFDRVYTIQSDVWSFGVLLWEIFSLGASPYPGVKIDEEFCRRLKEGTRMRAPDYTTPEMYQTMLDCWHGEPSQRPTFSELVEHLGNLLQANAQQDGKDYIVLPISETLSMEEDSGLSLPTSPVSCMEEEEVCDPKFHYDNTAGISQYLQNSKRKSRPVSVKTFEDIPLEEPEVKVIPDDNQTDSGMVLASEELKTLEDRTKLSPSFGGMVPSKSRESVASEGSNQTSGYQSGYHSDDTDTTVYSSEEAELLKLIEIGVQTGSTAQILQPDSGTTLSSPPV

In general, IC50 refers to the concentration that inhibits the measured activity by half. Turning to `CNC(=O)c1cc(Oc2ccc(NC(=O)Nc3ccc(Cl)c(C(F)(F)F)c3)c(F)c2)cc[n+]1[O-]` [M-2], the IC50 in the series with ERK1/2 amounted to 0.239 ± 0.239 µM; at murine CSF1R (setting [1]) it was 0.066 ± 0.017 µM; on murine CSF1R (setting [2]), 0.018 ± 0.007 µM; in the series on AKT it was 0.063 ± 0.037 µM.
`NC(=O)c1cc(Oc2ccc(NC(=O)Nc3ccc(Cl)c(C(F)(F)F)c3)c(F)c2)ccn1` [M-4]: the IC50 in the series on ERK1/2 worked out at 0.783 ± 0.034 µM; on VEGFR2, 0.037 µM; on murine CSF1R (setting [1]), 0.273 ± 0.101 µM; at murine CSF1R (setting [2]) it was 0.185 ± 0.029 µM; with AKT it was 0.276 ± 0.03 µM. In addition, in the series “Binding to mouse plasma”, the unbound fraction came out at 0.332%. On murine CSF1R, the “signal of total CSF1R” value is listed as “destabilized”.
As for `NC(=O)c1cc(Oc2ccc(NC(=O)Nc3ccc(Cl)c(C(F)(F)F)c3)c(F)c2)cc[n+]1[O-]` [M-5], the IC50 with ERK1/2 was determined as 0.276 ± 0.197 µM; at murine CSF1R (setting [1]), 0.019 ± 0.015 µM; at murine CSF1R (setting [2]), 0.018 ± 0.014 µM; in the series on AKT, 0.093 ± 0.11 µM. Moreover, the “signal of total CSF1R” value at murine CSF1R was “destabilized”.
